Test [1] concerns the target Cyclin-dependent kinase 5/CDK5 activator 1 (Homo sapiens, UniProt Q00535). Description: CDK5/p35 kinase inhibitors, dose response, biochemical, cherry-picked samples, set 2 (AID 504545).
The nature of test [2]: A cytotoxicity screen of small molecule inhibitors of the PhoP region in Salmonella typhi identified in the primary screen. [Related pubchem assays: 1850, 1864, 1985 ]. In kind it is functional.
In test [3] the target is T1, Bcl-2-like protein 10 (Homo sapiens, UniProt Q9HD36).
T1 sequence (Q9HD36 whole entry): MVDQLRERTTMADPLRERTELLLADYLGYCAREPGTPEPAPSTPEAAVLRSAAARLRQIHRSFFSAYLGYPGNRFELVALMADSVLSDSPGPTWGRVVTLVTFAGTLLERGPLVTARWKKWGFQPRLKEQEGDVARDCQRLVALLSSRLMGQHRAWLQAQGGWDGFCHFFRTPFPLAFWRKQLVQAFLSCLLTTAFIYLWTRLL
Nature of the test: displacers of TR3 peptide from Bcl-B, primary screen, selectivity assay for Bfl-1 inhibitor project, biochemical, fluorescence polarization, FITC-TR3 peptide (AID 748).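 Also: fluorescence polarization from a fluorescein-labelled TR3 peptide binding purified Bcl-B.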

For test [4], the target named is Cytochrome P450 2C9 (Homo sapiens, UniProt P11712). Particulars: Potency.
Test [5] deals with Acyl-homoserine lactone acylase PvdQ (Pseudomonas aeruginosa (strain LESB58), UniProt Q9I194). Description: P. aeruginosa PvdQ acylase inhibitors, dose response, biochemical, fluorescence, plate reader and imaging, cherry-picks (AID 493231).
In test [6] the target is T2, Leucine aminopeptidase (Plasmodium falciparum 3D7, UniProt Q8IL11).
T2 sequence (Q8IL11 whole entry): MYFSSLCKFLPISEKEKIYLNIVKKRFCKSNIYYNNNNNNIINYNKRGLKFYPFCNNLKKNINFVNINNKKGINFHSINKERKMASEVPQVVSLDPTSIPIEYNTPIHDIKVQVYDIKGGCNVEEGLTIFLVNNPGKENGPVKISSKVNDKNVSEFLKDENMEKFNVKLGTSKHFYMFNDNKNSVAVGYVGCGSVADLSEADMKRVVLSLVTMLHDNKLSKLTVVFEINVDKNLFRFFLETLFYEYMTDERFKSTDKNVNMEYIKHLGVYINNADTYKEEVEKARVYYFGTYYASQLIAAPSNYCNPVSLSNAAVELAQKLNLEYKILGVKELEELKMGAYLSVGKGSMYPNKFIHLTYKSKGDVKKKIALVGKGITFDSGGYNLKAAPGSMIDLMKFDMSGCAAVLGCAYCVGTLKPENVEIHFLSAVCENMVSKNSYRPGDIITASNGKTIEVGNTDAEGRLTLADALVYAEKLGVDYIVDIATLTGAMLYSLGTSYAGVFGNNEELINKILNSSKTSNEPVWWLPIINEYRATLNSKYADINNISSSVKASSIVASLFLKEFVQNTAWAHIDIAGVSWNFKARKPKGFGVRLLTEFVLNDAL
Description: P. falciparum M17LAP inhibitors, primary screen, biochemical, fluorogenic H-Leu-NHMec substrate, 1536-well (AID 1619). The test is classed as functional.

In test [7] the target is T3, Aspartyl aminopeptidase (Plasmodium falciparum 3D7, UniProt Q8I2J3).
T3 sequence (Q8I2J3 whole entry): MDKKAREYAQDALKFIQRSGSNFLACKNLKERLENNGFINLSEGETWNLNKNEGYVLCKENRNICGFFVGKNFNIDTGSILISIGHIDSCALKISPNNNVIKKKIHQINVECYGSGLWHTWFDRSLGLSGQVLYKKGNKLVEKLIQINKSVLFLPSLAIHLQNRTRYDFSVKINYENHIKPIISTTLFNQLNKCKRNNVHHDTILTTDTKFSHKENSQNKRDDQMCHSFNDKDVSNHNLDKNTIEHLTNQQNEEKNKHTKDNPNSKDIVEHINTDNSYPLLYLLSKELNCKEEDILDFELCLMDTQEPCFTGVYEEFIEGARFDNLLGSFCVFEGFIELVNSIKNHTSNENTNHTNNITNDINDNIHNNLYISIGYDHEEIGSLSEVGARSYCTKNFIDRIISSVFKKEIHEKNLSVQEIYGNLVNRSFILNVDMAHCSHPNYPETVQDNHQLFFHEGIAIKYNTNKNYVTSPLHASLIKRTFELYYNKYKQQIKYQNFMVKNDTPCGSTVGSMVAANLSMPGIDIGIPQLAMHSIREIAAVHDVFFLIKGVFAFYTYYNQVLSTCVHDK

Test [8] deals with Procathepsin L (Homo sapiens, UniProt P07711).
Test [9] deals with Eukaryotic translation initiation factor 4H (Homo sapiens, UniProt Q15056). Description: human eIF4H binding inhibitors, primary screen, translation initiation inhibitor project, biochemical, uHTS, fluorescence polarization (AID 2012).
For test [10], the target named is T4, Polyadenylate-binding protein 1 (Homo sapiens, UniProt P11940). Description: PABP poly(A) RNA binding inhibitors, primary screen, biochemical, fluorescence polarization, uHTS (AID 2014).
Test [11] addresses DNA dC->dU-editing enzyme APOBEC-3A (Homo sapiens, UniProt P31941). Nature of the test: Dose Response confirmation of small molecule APOBEC3A DNA Deaminase Inhibitors via a fluorescence-based single-stranded DNA deaminase assay. [Related pubchem assays (depositor defined):AID493011, AID493024]. In kind it is functional.
Test [12] concerns the target DNA dC->dU-editing enzyme APOBEC-3G (Homo sapiens, UniProt Q9HC16). The test is classed as functional.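 Also: Dose-response counterscreen measuring inhibition of APOBEC3G DNA deaminase activity, run while confirming APOBEC3A inhibitors.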
The target in test [13] is T5, DNA repair and recombination protein RAD54-like (Homo sapiens, UniProt Q92698).
T5 sequence (Q92698 whole entry): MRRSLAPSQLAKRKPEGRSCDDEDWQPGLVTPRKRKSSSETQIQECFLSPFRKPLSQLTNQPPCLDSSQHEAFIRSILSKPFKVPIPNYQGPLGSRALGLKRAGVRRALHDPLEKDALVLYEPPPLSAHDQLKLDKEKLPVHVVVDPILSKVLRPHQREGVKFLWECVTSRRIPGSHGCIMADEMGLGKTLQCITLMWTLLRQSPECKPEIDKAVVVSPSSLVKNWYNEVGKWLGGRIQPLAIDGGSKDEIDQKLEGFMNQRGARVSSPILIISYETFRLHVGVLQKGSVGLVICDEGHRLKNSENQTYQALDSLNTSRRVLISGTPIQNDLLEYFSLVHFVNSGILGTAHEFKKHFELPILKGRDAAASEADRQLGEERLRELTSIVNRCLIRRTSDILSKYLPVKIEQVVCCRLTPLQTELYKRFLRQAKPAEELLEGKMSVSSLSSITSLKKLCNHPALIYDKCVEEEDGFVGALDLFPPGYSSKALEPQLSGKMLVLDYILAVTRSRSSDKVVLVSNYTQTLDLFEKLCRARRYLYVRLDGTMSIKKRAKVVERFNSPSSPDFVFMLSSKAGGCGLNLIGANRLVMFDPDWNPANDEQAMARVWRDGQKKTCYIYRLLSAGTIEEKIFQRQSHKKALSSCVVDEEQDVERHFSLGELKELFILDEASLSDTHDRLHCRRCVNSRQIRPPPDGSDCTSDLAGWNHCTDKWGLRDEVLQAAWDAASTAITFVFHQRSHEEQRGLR
Description: inhibitors of human RAD54 branch migration, confirmation, biochemical, fluorescence, cherry-picked samples, dose series (AID 651657). In kind it is functional.

Test [14] concerns the target Neurotensin receptor type 1 (Homo sapiens, UniProt P30989). The test is classed as functional.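 Also: Image-based confirmatory dose-response assay measuring agonist activity at NTR1; NTR1-expressing U2OS osteosarcoma cells imaged for beta-arrestin GFP spot formation; agonist potency where compounds increase beta-arrestin recruitment.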
The target of test [15] is Protein Rev (Human immunodeficiency virus type 1 group M subtype B (isolate HXB2)(HIV-1), UniProt P04618). Description: inhibitors of Rev binding to RRE RNA, dose response, biochemical, fluorescence polarization, HIV-1 (AID 434976). Also on record: species or system Human immunodeficiency virus 1.
For test [16], the target named is Female germline-specific tumor suppressor gld-1 (Caenorhabditis elegans, UniProt Q17339). Description: inhibitors of GLD-1 binding to TGE RNA, dose response, biochemical, fluorescence polarization, C. elegans (AID 2802).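 Also: fluorescence polarization of labeled TGE RNA bound by purified gld-1 protein.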
Test [17] has as its target T4, Polyadenylate-binding protein 1. Nature of the test: PABP1 MLLE–PAM2 interaction inhibitors, dose response, miRNA deadenylation inhibitor project, biochemical, fluorescence polarization, Cy5-PAM2 peptide, secondary (AID 602260). In kind it is functional. Particulars: read-out: IC50_Mean.
The target is the same in test [18]. Nature of the test: PABP1 MLLE–PAM2 binding inhibitor potency, dose response, biochemical, fluorescence polarization, FITC-PAM2 peptide (AID 602259). The test is classed as functional. Particulars: read-out: IC50_Mean.
Test [19] has as its target Protein Tat (Human immunodeficiency virus type 1 group M subtype B (isolate HXB2)(HIV-1), UniProt P04608). The test is classed as functional.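 Also: tat binding to TAR RNA read out by fluorescence polarization.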
Test [20] in a line: THP-1 cell cytotoxicity, dose response, cytotoxicity control for Vif-APOBEC3G degradation inhibitor project, THP-1 cells (AID 1117359). The test is classed as functional. Particulars: Human immunodeficiency virus 1, THP-1.

Each structure is given as a SMILES string. Activity calls are given as the source filed them.

T4 sequence (P11940 whole entry): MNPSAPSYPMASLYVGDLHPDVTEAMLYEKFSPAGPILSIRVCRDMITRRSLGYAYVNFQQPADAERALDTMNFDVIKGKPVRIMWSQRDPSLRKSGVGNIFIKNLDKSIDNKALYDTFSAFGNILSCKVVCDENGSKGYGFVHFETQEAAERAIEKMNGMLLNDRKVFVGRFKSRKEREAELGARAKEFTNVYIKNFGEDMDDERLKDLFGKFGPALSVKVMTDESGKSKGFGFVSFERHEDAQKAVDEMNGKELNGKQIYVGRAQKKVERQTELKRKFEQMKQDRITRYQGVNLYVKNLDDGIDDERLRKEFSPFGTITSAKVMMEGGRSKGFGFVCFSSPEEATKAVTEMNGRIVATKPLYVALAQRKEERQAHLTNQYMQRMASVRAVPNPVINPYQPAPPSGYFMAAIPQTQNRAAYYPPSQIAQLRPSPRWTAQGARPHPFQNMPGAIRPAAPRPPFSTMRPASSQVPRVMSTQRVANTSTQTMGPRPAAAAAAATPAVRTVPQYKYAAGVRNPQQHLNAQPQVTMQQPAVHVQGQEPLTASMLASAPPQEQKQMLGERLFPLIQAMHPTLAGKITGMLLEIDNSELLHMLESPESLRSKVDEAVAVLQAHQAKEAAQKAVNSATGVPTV
Chain of Cyclin-dependent kinase 5/CDK5 activator 1 (Q00535 whole entry): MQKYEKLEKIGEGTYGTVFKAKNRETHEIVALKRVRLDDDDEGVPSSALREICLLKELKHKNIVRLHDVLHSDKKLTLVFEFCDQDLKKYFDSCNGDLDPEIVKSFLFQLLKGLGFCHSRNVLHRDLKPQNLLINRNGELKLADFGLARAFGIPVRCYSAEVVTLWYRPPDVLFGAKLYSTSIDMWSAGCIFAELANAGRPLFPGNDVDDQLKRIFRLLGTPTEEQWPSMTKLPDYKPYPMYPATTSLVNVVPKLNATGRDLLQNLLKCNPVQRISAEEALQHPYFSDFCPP
Chain of Cyclin-dependent kinase 5/CDK5 activator 1 (Q15078 whole entry, further chain): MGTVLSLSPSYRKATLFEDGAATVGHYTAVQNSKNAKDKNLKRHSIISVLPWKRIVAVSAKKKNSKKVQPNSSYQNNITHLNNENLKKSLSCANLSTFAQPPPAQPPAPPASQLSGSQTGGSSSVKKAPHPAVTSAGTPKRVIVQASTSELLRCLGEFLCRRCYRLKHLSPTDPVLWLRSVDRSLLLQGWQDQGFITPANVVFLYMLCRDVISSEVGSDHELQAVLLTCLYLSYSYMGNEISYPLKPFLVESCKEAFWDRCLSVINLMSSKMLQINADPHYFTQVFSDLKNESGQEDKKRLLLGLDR
Chain of Protein Rev (P04618 whole entry): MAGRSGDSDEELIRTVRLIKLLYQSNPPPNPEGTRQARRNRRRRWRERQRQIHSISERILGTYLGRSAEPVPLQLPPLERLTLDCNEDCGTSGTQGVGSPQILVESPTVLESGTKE
Chain of Cytochrome P450 2C9 (P11712 whole entry): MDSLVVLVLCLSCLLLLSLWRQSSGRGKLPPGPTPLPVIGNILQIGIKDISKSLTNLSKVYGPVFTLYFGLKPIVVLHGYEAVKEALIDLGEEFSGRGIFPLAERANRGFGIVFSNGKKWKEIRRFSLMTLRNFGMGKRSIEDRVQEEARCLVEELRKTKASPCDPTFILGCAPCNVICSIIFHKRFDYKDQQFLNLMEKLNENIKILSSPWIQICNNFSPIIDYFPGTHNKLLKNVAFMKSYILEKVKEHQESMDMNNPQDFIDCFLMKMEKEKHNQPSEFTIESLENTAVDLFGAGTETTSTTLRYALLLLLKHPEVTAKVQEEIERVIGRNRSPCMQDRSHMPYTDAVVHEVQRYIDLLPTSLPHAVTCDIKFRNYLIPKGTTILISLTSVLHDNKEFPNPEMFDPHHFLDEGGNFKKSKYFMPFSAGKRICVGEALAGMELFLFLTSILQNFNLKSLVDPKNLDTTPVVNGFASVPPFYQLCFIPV
Chain of Acyl-homoserine lactone acylase PvdQ (Q9I194 24-193 limits assumed): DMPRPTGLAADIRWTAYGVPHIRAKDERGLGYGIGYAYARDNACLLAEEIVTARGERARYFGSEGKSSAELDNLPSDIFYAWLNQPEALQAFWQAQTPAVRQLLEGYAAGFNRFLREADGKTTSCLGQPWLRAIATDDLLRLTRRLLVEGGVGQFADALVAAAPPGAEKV
Chain of Acyl-homoserine lactone acylase PvdQ (Q9I194 217-762 limits assumed): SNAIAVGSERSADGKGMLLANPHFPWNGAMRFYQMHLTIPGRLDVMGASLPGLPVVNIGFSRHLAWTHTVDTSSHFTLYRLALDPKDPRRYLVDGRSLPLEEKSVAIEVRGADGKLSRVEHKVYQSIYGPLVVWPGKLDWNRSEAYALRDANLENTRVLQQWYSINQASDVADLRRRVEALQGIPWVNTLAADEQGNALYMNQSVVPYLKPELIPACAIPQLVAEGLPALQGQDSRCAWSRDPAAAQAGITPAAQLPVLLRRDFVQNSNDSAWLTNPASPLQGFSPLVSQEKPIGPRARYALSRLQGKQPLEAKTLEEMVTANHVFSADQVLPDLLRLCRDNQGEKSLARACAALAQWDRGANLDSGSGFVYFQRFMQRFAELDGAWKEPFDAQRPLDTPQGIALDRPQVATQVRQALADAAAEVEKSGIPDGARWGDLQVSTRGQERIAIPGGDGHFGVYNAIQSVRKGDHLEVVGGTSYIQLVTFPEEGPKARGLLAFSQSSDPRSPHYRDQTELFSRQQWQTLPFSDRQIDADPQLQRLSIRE
Chain of Female germline-specific tumor suppressor gld-1 (Q17339 whole entry): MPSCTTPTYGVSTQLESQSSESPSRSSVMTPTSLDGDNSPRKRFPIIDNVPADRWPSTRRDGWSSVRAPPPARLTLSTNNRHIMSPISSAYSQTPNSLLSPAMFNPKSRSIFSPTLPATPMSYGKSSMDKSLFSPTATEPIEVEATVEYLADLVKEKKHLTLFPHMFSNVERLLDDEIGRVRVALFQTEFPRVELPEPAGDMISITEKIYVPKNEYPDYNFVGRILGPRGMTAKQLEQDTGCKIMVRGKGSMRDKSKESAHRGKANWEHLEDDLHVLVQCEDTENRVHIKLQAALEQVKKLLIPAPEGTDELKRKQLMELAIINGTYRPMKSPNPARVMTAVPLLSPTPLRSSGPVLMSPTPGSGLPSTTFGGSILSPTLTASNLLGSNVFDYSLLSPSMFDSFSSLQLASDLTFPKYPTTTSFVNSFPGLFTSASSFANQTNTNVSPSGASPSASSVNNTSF
Chain of Procathepsin L (P07711 whole entry): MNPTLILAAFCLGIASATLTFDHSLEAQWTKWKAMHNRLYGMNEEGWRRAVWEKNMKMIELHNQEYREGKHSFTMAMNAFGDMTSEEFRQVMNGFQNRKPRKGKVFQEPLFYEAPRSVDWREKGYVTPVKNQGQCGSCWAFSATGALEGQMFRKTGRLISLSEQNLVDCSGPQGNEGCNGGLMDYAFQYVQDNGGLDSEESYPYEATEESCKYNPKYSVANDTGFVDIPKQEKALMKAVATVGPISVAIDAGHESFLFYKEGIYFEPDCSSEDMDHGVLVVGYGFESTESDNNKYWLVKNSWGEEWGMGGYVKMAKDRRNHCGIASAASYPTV
Chain of Neurotensin receptor type 1 (P30989 whole entry): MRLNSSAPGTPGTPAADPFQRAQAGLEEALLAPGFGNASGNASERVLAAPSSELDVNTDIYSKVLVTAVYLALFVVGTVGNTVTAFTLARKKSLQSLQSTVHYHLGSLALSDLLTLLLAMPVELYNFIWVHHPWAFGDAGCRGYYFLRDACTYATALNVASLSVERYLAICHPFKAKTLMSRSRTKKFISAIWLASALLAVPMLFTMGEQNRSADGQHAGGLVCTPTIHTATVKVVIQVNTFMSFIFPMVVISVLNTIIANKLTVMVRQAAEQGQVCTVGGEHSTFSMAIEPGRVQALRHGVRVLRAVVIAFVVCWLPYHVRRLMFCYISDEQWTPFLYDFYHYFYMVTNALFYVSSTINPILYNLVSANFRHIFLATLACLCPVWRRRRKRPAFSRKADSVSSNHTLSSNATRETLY
Chain of Protein Tat (P04608 whole entry): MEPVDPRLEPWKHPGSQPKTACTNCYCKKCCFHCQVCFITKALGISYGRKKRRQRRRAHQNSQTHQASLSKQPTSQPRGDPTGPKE
Chain of DNA dC->dU-editing enzyme APOBEC-3A (P31941 whole entry): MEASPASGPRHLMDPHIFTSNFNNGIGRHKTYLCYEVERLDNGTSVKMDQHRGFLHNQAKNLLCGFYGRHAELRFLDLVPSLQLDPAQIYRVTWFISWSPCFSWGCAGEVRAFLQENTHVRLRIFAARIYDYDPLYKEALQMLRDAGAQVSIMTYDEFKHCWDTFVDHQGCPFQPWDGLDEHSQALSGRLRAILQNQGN
Chain of DNA dC->dU-editing enzyme APOBEC-3G (Q9HC16 whole entry): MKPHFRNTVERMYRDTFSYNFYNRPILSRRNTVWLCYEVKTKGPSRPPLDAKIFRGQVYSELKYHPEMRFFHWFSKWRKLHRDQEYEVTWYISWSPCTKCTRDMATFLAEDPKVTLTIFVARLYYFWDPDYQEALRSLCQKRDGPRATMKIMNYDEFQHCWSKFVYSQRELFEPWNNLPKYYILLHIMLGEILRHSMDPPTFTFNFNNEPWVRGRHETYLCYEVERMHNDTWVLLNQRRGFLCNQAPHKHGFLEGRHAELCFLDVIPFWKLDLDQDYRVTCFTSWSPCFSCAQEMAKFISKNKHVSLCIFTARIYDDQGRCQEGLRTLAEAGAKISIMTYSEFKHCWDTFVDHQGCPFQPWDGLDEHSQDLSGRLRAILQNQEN

For the compound `COc1cc(C(=O)N2CCN(c3ccccn3)CC2)cc(OC)c1OC`, the AC50 in test [1] is 2.75 µM (active). Consider `Cc1ccc(NC2=NCCCS2)cc1Cl`, for which the EC50 in test [2] is > 50 µM (active). Consider `COc1ccc(-c2nc3n(n2)C(c2cccnc2)C(C(N)=O)=C(C)N3)cc1` (centres undefined), for which, in test [3], the IC50 is > 100 µM (inactive).

For the compound `CN1CCN(c2ncc3nc(-c4cccc(C#N)c4)c(=O)n(C[C@H]4CCCO4)c3n2)CC1`, the AC50 in test [4] is 25.1 µM (inconclusive).

`Cc1cc(C)nc(N(C#N)Cc2ccc(Cl)cc2)n1`: the AC50 in test [5] is 21.9 µM (active). Turning to `O=C(CSc1nnc[nH]1)OCN1C(=O)c2ccccc2C1=O`, the IC50 was 64.4 µM (active) in test [6], 0.35 µM (active) in test [7] and > 59.6 µM (not active) in test [8]. Regarding `COc1nnc(-c2ccc(N3CCOCC3)c(NC(=O)c3ccc(C)cc3)c2)c2ccccc12`, in test [2], the EC50 is > 50 µM (active). In the case of `CCN1C(NCCOC)=N[C@@H](c2cccc(F)c2)C(C(=O)OC)=C1C`, the IC50 was > 100 µM (inactive) in test [9], 12.8 µM (active) in [10], 3.86 µM (active) in test [11] and 5.2 µM (active) in [12].

For the compound `COc1cc2c(C#N)c(N3CCN(C)CC3)nc(N)c2c(N)n1`, in test [3], the IC50 was > 100 µM (inactive). Besides, the AC50 in test [13] was 28.9 µM (active). `NC(=O)c1cc([N+](=O)[O-])c(Cl)cc1NCc1cccnc1`: in test [1], the AC50 was 14.3 µM (active). Turning to `CCOC(=O)NC(=O)COC(=O)c1ccc(Sc2nnc[nH]2)c([N+](=O)[O-])c1`, the IC50 in test [7] is 0.609 µM (active); in test [8], > 59.6 µM (not active). Regarding `Cc1cc(C)nc(N(C#N)Cc2ccccc2)n1`, the AC50 in test [5] was 9.18 µM (active). `NCCC[C@@H](CC(=O)N[C@@H]1CCCC[C@H]1C(=O)N[C@H](CC(=O)N[C@@H](CCC(=O)O)CC(=O)O)Cc1ccccc1)NC(=O)C[C@H](CO)NC(=O)[C@@H]1CCCC[C@H]1N`: in test [4], the AC50 is 39.8 µM (inconclusive). On to `CCCCn1c(SCC(=O)N2CCC(C)CC2)nc2cc(S(N)(=O)=O)ccc21`, for which the EC50 in test [14] is 20.7 µM (inactive). In the case of `Cc1ccc[n+](-c2nc([O-])sc2C=NNc2ccc([N+](=O)[O-])cc2)c1`, the IC50 in test [15] was 10.1 µM (not active); in test [16] it was 3.96 µM (active); in test [17] it was > 66 µM (inactive); in test [18], 33.3 µM (inactive). For the compound `COc1ccc(/C=N/c2c(-c3ccco3)nc3ccccn23)cc1OC`, the IC50 in test [15] was 56.1 µM (not active); in test [16], 3.71 µM (active); in [19], 8.15 µM (inconclusive). Besides, the CC50 in test [20] was > 40 µM (active).

Source of the values: ChEMBL document CHEMBL1201862, “PubChem BioAssay data set” (2004).
